Series [1] deals with FR-negative HOS-143b. As to the kind of experiment: Co-culture at 10 nM EC17, varying E/T ratios: specific lysis. Conditions: 10 nM EC17, 48 hours. It counts as cell-based, human. On the procedure: After 24 hours of co-culture, supernatants were harvested to determine tumor cell killing. To study the kinetics of T cell activation and FR correlation in vitro (FIGS. 60A-L), co-cultures were carried out in FR+/− cell lines at varying E/T ratios (1:27, 1:9, 1:3, 1:1, 3:1) in the continuous presence of 10 nM EC17. The kinetics of tumor cell killing were quantified after 16 and 48 hours of co-culture. Meanwhile, a portion of the supernatants was taken after 44 hours of co-culture for measurement of IFNγ, IL-2 and TNFα. Using Promega's CytoTox 96® LDH assay kit, target cell killing was quantified and expressed as specific lysis (%) which was normalized to basal levels in the absence of EC17 at defined E/T ratios. The LEGENDplex™ human Th1 cytokine panel (BioLegend, San Diego, Calif.) was used to determine CAR-T cell derived cytokines.
Specific lysis (%) was quantified after 16 and 48 hours of co-culture, and Th1 cytokines (IFNγ, IL-2, TNFα) in culture media were measured after 44 hours of co-culture. […] It generally took a longer time (48 hours) and a higher E/T ratio (≥1:1) to see significant activity in the lowest FR-expressing OV90 cells (FIGS. 60A-G). The high FR-expressing KB cells responded […] to cause significant cell death (FIG. 60F).

For series [2], the system named is MDA-MB-231 tumors. As to the kind of experiment: Dietary folate effect on antitumor activity and CRS, MDA-MB-231 tumors in NSG mice. It counts as in vivo. On the procedure: To study the effect of high dietary folate (FIGS. 63A-K), two sets of NSG mice were placed on either a FA-replete diet (4 mg/kg, Envigo, Indianapolis, Ind.) or a FA-deficient diet (TestDiet, St. Louis, Mo.) upon arrival. On day 0, both sets of the mice received ˜10 million of the same “clinical facsimile” CAR-T cells followed by no EC17 or EC17 SIW at 500 nmol/kg starting on day 3. On the first day of EC17 administration, MDA-MB-231 tumors size averaged around ˜549±184 mm^3 (280-918 mm^3) in FA-replete mice, and ˜559±165 mm^3 (356-961 mm^3) in FA-deficient mice.
Previously, it was shown that administration of FA or a FA ligand helped reduce the severity of CRS in MDA-MB-231 tumor-bearing mice. To test the long-term effect of dietary folate, mice were maintained on defined diets for ˜73 days and used when their tumors reached ˜549±184 mm^3 (280-918 mm^3) in FA-replete mice, and ˜559±165 mm^3 (356-961 mm^3) in FA-deficient mice (FIGS. 63A-K).
Since we started MDA-MB-231 tumors at larger sizes than previous studies, tumor regression due to alloreactivity at this 10-million “clinical facsimile” CAR-T cell dose was not apparent (FIGS. 63A and 63C).
Using anti-human EGFR (clone Hu1) to identify MDA-MB-231 cancer cells within mouse tumor masses after an enzymatic digestion, we analyzed FRα protein expression (clone LK26) in three tumors recovered from mice on FA-replete diet that experienced a relapse despite continuing EC17 treatment. By flow cytometric detection, EGFR+ cancer cells isolated from the smallest tumor (21 mg) expressed FRα, while EGFR+ cancer cells isolated from the two larger tumors (90 mg and 363 mg) had completely lost their FRα expression (FIGS. 63I-K). Using the quantitative radioligand binding assay with ^3H-FA, the loss of functional FR levels on tissue homogenates obtained from these tumors was confirmed (˜2.1 pmol/mg binding potential versus ˜103 pmol/mg in tumors from untreated animals). Therefore, FA-deficiency may lead to enhanced activity and CRS toxicity; while non-physiological FA intake prevents CRS and continuous consumption may lead to reduced activity.

In series [3] the test system is HOS-FRα tumor. As to the kind of experiment: CRS toxicity and sodium fluorescein rescue in HOS-FRα tumor-bearing mice. It counts as in vivo. On the procedure:
All animal care and use were performed according to NIH guidelines and in compliance with protocols approved by the Purdue University Animal Use and Care Committee. Female 4 to 5-week-old NOD/SCID gamma (NSG™) mice (stock number: 005557) were purchased from The Jackson Laboratory (Bar Harbor, Me.). Unless specifically indicated, all animals were maintained on a FA-deficient diet (TestDiet, St. Louis, Mo.) upon arrival and throughout the study. To establish subcutaneous xenografts, MDA-MB-231 and HOS-FRα were implanted in the right flank region at 2.5×10^6 and 1×10^6 cells per animal, respectively. For intravenous xenografts, THP1-FRβ cells were inoculated at 5×10^6 cells per animal. Subcutaneous tumors were measured 2-3 times per week with a caliper and calculated using the ellipsoidal formula (length×width^2)/2. […] All animal doses (CAR-T cells, EC17, sodium fluorescein) were given intravenously.
Depending on the CAR-T cell dose and how EC17 is administered, tumor-bearing mice receiving FITC-specific CAR-T cells can experience severe CRS and varying degrees of body weight loss. Therefore, a CRS grading system (0-5 scale) was developed to empirically assess CRS toxicity from animals' gross morphology and social behavior to allow for better timing of CRS rescue. While grades 0 and 5 indicated normal (no CRS) or death (due to severe CRS), respectively, grades 1, 2, and 3-4 were considered mild, light-to-moderate, and severe CRS (FIG. 57A). In addition, all EC17 doses were intentionally given towards the end of any given day to allow potential CRS symptoms to develop overnight. On the days immediately following each EC17 dose, animals were scored and rescue agents such as sodium fluorescein, folic acid and leucovorin were used to mitigate CRS toxicity. In this particular instance, a batch of E2 CAR-T cells with a high EGFRt+CD4/CD8 ratio (˜93:7) was given to HOS-FRα tumor-bearing mice at a mixture of ˜2.5 million CD8 and ˜33 million CD4 on day 0 (FIG. 57B). […]

The structures appear in SMILES notation.

As to `NC1=NC2N=CC(CNc3ccc(C(=O)N[C@@H](CCC(=O)NCCNC(=S)Nc4ccc(-c5c6ccc(=O)cc-6oc6cc(O)ccc56)c(C(=O)O)c4)C(=O)O)cc3)=NC2C(=O)N1` (stereo partly shown) [EC17, FA-(γ)-ethylenediamine-FITC], the specific lysis response result in series [1] is on record as “essentially unharmed”. Moreover, the “CD3ε+EGFRt+ CAR-T cells in blood” value in series [2] (FA-deficient diet, day 52) is on record as 1.6-20.4×10^4 per 100 μL blood; in series [2] (FA-replete diet, day 59) it was 0.027-4.3×10^3 per 100 μL blood. Also, in series [2] (FA-deficient diet, subsequent EC17 doses), the CRS grade was 2-3 grade. Also, the CRS result in series [2] (FA-replete diet, ~10 million CAR-T cells, EC17 500 nmol/kg weekly) was “did not show symptoms of CRS”. For the same molecule, the “CRS grade (0-5 scale)” value in series [3] (day 13, after EC17 500 nmol/kg on day 12) is given as 3 grade; in series [3] (days 4 and 11, after EC17 500 and 100 nmol/kg on days 3 and 10, ~35 million CAR-T cells) it was 1-2 grade.

The values are drawn from patent publication US11779602B2, “Methods of use for CAR T cells” (ENDOCYTE, INC., priority 2018, dated 2023).
